In patent US11124510B2, “Alkyl chain modified imidazoquinoline TLR7/8 agonist compounds and uses thereof” (Dynavax Technologies Corporation, priority 2017, dated 2021):

Experiments:
TLR7 = TLR7 (Homo sapiens (Human), UniProt Q9NYK1); assay: TLR7 agonist bioactivity: induction of IFNα protein in pDC-enriched PBMC cultures (ELISA, 24 h); type: cell-based; details: for EC50: IFNα induction, pDC-enriched human PBMC, 24 hours; for fold loss of TLR7 agonist potency compared to Compound No. 63-00 (IMDQ): less potent than IMDQ; for TLR7 (% of Compound No. 63-00 EC50 Value): EC50 expressed as percentage of EC50 of Compound No. 63-00
TLR7, sequence (Q9NYK1 27-1049): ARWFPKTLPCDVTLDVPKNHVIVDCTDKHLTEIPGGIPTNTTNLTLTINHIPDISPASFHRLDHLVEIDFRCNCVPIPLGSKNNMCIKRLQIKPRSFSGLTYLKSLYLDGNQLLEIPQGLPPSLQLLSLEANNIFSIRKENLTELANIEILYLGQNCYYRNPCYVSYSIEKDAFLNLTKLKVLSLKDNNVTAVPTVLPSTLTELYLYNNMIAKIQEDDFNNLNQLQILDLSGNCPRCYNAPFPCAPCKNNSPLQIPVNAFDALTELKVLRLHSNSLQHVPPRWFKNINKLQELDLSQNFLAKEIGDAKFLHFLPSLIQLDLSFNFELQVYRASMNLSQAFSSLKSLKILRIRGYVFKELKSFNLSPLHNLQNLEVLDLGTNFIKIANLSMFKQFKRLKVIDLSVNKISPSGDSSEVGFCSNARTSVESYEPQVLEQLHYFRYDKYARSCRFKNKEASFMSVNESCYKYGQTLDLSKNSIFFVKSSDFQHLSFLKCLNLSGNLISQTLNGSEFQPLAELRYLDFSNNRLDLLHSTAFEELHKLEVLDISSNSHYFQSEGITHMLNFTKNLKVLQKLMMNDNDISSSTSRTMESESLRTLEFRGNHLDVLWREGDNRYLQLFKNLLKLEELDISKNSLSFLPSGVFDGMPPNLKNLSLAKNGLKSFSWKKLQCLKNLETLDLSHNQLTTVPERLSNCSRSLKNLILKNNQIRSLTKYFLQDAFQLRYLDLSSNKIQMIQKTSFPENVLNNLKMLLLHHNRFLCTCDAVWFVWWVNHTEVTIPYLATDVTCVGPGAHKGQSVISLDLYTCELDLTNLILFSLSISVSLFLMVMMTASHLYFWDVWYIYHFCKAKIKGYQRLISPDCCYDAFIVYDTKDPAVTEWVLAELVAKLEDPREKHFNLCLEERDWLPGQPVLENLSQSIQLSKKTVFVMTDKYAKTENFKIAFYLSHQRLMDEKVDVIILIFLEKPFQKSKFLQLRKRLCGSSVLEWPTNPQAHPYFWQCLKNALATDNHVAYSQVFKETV
Protocol: Plasmacytoid dendritic cell (pDC)—enriched peripheral blood mononuclear cells (PBMCs) were prepared from the blood of a series of human donors (3-5 donors/experiment). PBMCs were isolated using Ficoll-Paque Premium® (GE Healthcare, Chicago Ill.) using methods well known to those in the art. pDCs were magnetically isolated from the total recovered PBMC population using CD304 (BDCA-4/Neuropilin-1) microbeads (Miltenyi Biotec, San Diego Calif.), according to the manufacturer's instructions. Isolated pDCs were then added back to between 1 and 2×10^8 of the corresponding donor's PBMCs for relative enrichment of this cell type. […] Culture supernatants were collected and interferon-alpha (IFNα) protein levels were measured by ELISA (MabTech, Cincinnati Ohio), according to the manufacturer's instructions.

TLR8 = TLR8 (Homo sapiens (Human), UniProt Q9NR97); assay: TLR8 agonist bioactivity: induction of TNFα protein in monocyte cultures (ELISA, 24 h); type: cell-based; details: for EC50: TNFα induction, human monocytes, 24 hours; for fold increase of TLR8 agonist potency compared to Compound No. 63-00 (IMDQ): more potent than IMDQ
TLR8, sequence (Q9NR97 27-1041): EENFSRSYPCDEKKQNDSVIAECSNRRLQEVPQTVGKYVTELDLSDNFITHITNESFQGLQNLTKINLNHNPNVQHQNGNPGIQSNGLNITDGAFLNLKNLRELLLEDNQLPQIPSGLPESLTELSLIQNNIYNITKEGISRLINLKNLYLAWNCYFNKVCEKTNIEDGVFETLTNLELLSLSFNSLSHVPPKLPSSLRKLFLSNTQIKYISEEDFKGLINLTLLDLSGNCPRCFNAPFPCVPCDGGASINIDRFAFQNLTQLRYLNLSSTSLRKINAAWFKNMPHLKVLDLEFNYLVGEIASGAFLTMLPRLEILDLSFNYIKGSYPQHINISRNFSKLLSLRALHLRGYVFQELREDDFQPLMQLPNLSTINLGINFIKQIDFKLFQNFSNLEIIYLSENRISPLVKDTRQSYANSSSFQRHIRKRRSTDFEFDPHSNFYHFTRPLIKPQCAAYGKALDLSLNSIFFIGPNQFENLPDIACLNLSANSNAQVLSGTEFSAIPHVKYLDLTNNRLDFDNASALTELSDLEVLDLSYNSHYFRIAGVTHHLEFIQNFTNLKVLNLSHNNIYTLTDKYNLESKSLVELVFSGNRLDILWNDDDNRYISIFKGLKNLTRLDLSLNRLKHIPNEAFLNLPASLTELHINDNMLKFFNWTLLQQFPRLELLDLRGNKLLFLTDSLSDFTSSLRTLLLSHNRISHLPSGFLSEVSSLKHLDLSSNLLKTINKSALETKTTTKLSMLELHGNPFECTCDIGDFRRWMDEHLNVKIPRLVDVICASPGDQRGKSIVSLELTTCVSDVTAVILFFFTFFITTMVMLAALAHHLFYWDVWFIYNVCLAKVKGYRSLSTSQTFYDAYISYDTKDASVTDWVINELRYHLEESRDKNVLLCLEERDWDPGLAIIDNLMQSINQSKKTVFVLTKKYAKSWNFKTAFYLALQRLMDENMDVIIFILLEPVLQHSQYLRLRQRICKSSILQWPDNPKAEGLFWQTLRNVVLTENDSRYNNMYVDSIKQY
Protocol: Monocytes were magnetically isolated from PBMCs, prepared as described above, following labeling with CD14 microbeads (Miltenyi Biotec, San Diego Calif.), according to the manufacturer's instructions. […] Culture supernatants were collected and tumor necrosis factor alpha (TNFα) protein levels were measured by ELISA (MabTech, Cincinnati Ohio), according to the manufacturer's instructions.

serum IL-6 and IL-12p40 = assay: In vivo systemic immune activation assay: serum IL-6 and IL-12p40 by ELISA after single subcutaneous injection; design: species or system mice; details: 5 μg subcutaneously in footpad, 95% sesame oil/5% ethanol, ± SEM
Protocol: Small molecule TLR7 and TLR7/8 agonists derived from the 1H-imidazo[4,5-c]quinoline privileged template (see e.g., Imiquimod, Resiquimod) are known to rapidly distribute to the systemic compartment following intratumoral, subcutaneous, or intramuscular injection. Broad systemic distribution of these agonist compounds in wild-type mice induces TLR7-dependent cytokine responses, primarily in spleen and liver cells, which can subsequently be detected in the serum within 3-6 hours. The rapid increase in serum cytokine biomarkers (e.g., IL-6 and IL-12p40) can be used to assess the kinetics of systemic distribution of a locally administered TLR agonist.
The kinetics of distribution of pharmaceutical compositions comprised of Compound Nos. 63-00, 63-17, or 63-10 formulated in 95% sesame oil/5% ethanol (v/v) were assessed following a single subcutaneous injection in wild-type mice. All in vivo procedures were conducted in accordance with approved Institutional Animal Care and Use Committee (IACUC) protocols. The animals were housed in a facility that is accredited by the Association for Accreditation and Laboratory Animal Care (AALAC, Frederick Md.). Wild-type female BALB/c mice (15-20 gm) were obtained from Envigo (Hayward, Calif.) and acclimated for 2-3 days prior to use.
The pharmaceutical compositions were made with the three compounds, at a final concentration of 200 μg/mL, in a manner similar to that described in Example B2-1. At T=0, groups of 3 mice were anesthetized with 1% isoflurane and injected subcutaneously in the right footpad with 5 μg of each of the three compounds, or a vehicle control, in 25 uL of 95% sesame oil/5% ethanol (v/v). Then, at T=3, 6, and 24 hours, three animals from each group were anesthetized with 1% isoflurane to facilitate blood collection by cardiac puncture. Samples were processed to serum, and stored at −20° C. for further analysis.

CT26 colon carcinoma [1] = assay: Anti-tumor efficacy, repeated intratumoral dosing in CT26 colon carcinoma-bearing wild-type mice; type: in vivo; details: 0.5-20 μg in 95% sesame oil/5% ethanol
Protocol: The effect of repeated weekly doses of intratumorally delivered pharmaceutical compositions comprised of Compound No. 63-10, 63-18, or 63-33 formulated in 95% sesame oil/5% ethanol (v/v) on tumor growth inhibition was assessed in syngeneic CT26 colon carcinoma-bearing Balb/c mice. All in vivo procedures were conducted in accordance with approved Institutional Animal Care and Use Committee (IACUC) protocols. The animals were housed in a facility that is accredited by the Association for Accreditation and Laboratory Animal Care (AALAC, Frederick, Md.). Wild-type female Balb/c mice (15-20 gm) were obtained from Envigo (Hayward, Calif.) and acclimated for 2-3 days prior to use.
The pharmaceutical compositions were made with the three compounds at final concentrations of 5, 50, and 200 μg/mL in a manner similar to that described in Example B2-1. […] On day 0, mice were anesthetized with 1% isoflurane and 80,000 CT26 tumor cells in 200 uL of RMPI-1640 culture media plus 2.5% fetal bovine serum were injected subcutaneously in the right flank. Tumors were allowed to grow until they were ˜35 mm^3, at which point animals were assigned to groups to begin treatment. Mice were injected weekly for 4 weeks intratumorally with 100 uL of a pharmaceutical composition comprising 20, 5, or 0.5 μgs of Compound No. 63-10, or 20 or 5 μgs of Compound Nos. 63-18, or 63-33 formulated in 95% sesame oil/5% ethanol (v/v), or a vehicle control, twice weekly for 3 weeks (experimental days 9, 12, 16, 19, 23, and 26). The TLR9 CpG agonist was injected intratumorally with 100 μL of a pharmaceutical composition comprised of 50 μgs of compound formulated in phosphate buffered saline on the same dosing schedule. Tumor sizes were measured twice weekly from days 8 through day 30 with calipers, with tumor volumes calculated using the formula: length, multiplied by width, multiplied by width, divided by 2.

CT26 colon carcinoma [2] = assay: Anti-tumor efficacy in combination with anti-PD-1 antibody in dual flank CT26 colon carcinoma-bearing mice; type: in vivo; details: for tumor growth inhibition in the injected tumor (right flank) compared to the anti-PD-1 treatment alone / tumor growth inhibition in the distal tumor (left flank) compared to the anti-PD-1 treatment alone: 5,000 ng single intratumoral dose day 14, in combination with anti-PD-1; for tumor growth inhibition in the distal tumor (left flank) compared to the anti-PD-1 treatment alone: day 29; for injected tumor growth inhibition, difference from the anti-PD-1 treatment control at day 29: 5,000 ng single intratumoral dose, in combination with anti-PD-1, Kruskall-Wallis/Dunn
Protocol: All in vivo procedures were conducted in accordance with approved IACUC protocols. The animals were housed in a facility that is accredited by the AALAC. Wild-type female Balb/c mice (15-20 g) were obtained from Envigo (Hayward, Calif.) and acclimated for 2-3 days prior to use.
The pharmaceutical compositions were made using Compound No. 63-10 or 63-33 at final concentrations of 50,000 ng/mL in a manner similar to that described for Example B2-1. […] On day 0, mice were anesthetized with 1% isoflurane, and 80,000 CT26 tumor cells in 200 uL of RMPI-1640 culture media plus 2.5% fetal bovine serum were injected subcutaneously in both the right and left flanks. Tumors (left and right) were allowed to grow until day 8, when the right and left flank tumor sizes had reached approximately 35 mm^3, at which point mice were injected intraperitoneally with 250 μg of anti-PD-1 antibody formulated in phosphate buffered saline or a phosphate buffered saline vehicle control. The anti-PD-1 treatments were repeated on experimental days 12, 15, 19, 22, and 26. On experimental day 14, when the right (injected) and left (distal) flank tumors had reached approximately 100 mm^3, mice were randomized into treatment groups. […] Tumor sizes were measured twice weekly from days 14 through day 29 with calipers, with tumor volumes calculated using the formula: length, multiplied by width, multiplied by width, divided by 2.

EC50 (TLR7) [nM] | EC50 (TLR8) [nM] | SMILES | fold loss of TLR7 agonist potency compared to Compound No. 63-00 (IMDQ) (TLR7) [fold] | serum IL-6 (serum IL-6 and IL-12p40; 3 hours) [pg/mL] | serum IL-12p40 (serum IL-6 and IL-12p40; 3 hours) | serum IL-6 (serum IL-6 and IL-12p40; 6 hours) [pg/mL] | serum IL-12p40 (serum IL-6 and IL-12p40; 6 hours) | serum IL-6 (serum IL-6 and IL-12p40; 24 hours) [pg/mL] | serum IL-12p40 (serum IL-6 and IL-12p40; 24 hours) | fold increase of TLR8 agonist potency compared to Compound No. 63-00 (IMDQ) (TLR8) | CT26 tumor growth control compared to the vehicle control (CT26 colon carcinoma [1]) | TLR7 (% of Compound No. 63-00 EC50 Value) (TLR7) [%] | TLR8 (% of Compound No. 63-00 EC50 Value) (TLR8; EC50 expressed as percentage of EC50 of Compound No. 63-00) [%] | tumor growth inhibition in the injected tumor (right flank) compared to the anti-PD-1 treatment alone (CT26 colon carcinoma [2]) | tumor growth inhibition in the distal tumor (left flank) compared to the anti-PD-1 treatment alone (CT26 colon carcinoma [2]) | injected tumor growth inhibition, difference from the anti-PD-1 treatment control at day 29 (CT26 colon carcinoma [2])
2 | 104 | CCCCCNCc1ccc(Cn2c(CCCC)nc3c(N)nc4ccccc4c32)cc1 [Compound No. 63-17, 2-butyl-1-(4-((pentylamino)methyl)benzyl)-1H-imidazo[4,5-c]quinolin-4-amine] | 2 | 853 ± 539 | 84,731±32,530 pg/mL | 414 ± 105 | 258,645±19,982 pg/mL | 33 ± 4 | 19,546±2,116 pg/mL |  |  |  |  |  |  | 
15 | 213 | CCCCCCNCc1ccc(Cn2c(CCCC)nc3c(N)nc4ccccc4c32)cc1 [Compound No. 63-18, 2-butyl-1-(4-((hexylamino)methyl)benzyl)-1H-imidazo[4,5-c]quinolin-4-amine] |  |  |  |  |  |  |  | slightly improved | robust CT26 tumor growth control |  |  |  |  | 
 |  | CCCCc1nc2c(N)nc3ccccc3c2n1Cc1ccc(CN)cc1 [Compound No. 63-00, 1-(4-(aminomethyl)benzyl)-2-butyl-1H-imidazo[4,5-c]quinolin-4-amine, reference compound] |  | 772 ± 141 | 139,767±31,024 pg/mL | 160 ± 19 | 142,359±22,350 pg/mL | 32 ± 2 | 7,796±1,545 pg/mL |  |  | 100 |  | greater tumor growth inhibition | trend towards greater tumor growth inhibition | significantly different

SMILES | EC50 (TLR7) [nM] | EC50 (TLR8) [nM] | fold loss of TLR7 agonist potency compared to Compound No. 63-00 (IMDQ) (TLR7) [fold] | serum IL-6 (serum IL-6 and IL-12p40; 3 hours) [pg/mL] | serum IL-12p40 (serum IL-6 and IL-12p40; 3 hours) | serum IL-6 (serum IL-6 and IL-12p40; 6 hours) [pg/mL] | serum IL-12p40 (serum IL-6 and IL-12p40; 6 hours) | serum IL-6 (serum IL-6 and IL-12p40; 24 hours) [pg/mL] | serum IL-12p40 (serum IL-6 and IL-12p40; 24 hours) | fold increase of TLR8 agonist potency compared to Compound No. 63-00 (IMDQ) (TLR8) | CT26 tumor growth control compared to the vehicle control (CT26 colon carcinoma [1]) | TLR7 (% of Compound No. 63-00 EC50 Value) (TLR7) [%] | TLR8 (% of Compound No. 63-00 EC50 Value) (TLR8; EC50 expressed as percentage of EC50 of Compound No. 63-00) [%] | tumor growth inhibition in the injected tumor (right flank) compared to the anti-PD-1 treatment alone (CT26 colon carcinoma [2]) | tumor growth inhibition in the distal tumor (left flank) compared to the anti-PD-1 treatment alone (CT26 colon carcinoma [2]) | injected tumor growth inhibition, difference from the anti-PD-1 treatment control at day 29 (CT26 colon carcinoma [2])
CCCCc1nc2c(N)nc3ccccc3c2n1Cc1ccc(CNCCC2CC2)cc1 [Compound No. 63-33, 2-butyl-1-(4-(((2-cyclopropylethyl)amino)methyl)benzyl)-1H-imidazo[4,5-c]quinolin-4-amine] | 4 | 75 | 4 |  |  |  |  |  |  | 2.9 fold | robust CT26 tumor growth control | 290 | 41 | greater tumor growth inhibition | trend towards greater tumor growth inhibition | significantly different
